One block for each molecule: values may come before it.
How the values were obtained:
Human cadaver skin = experiment: In vitro human skin penetration study; type: in vitro ADME; conditions: analyte tocopheryl acetate
Procedure: DSS was similar in TP and […] content, however, unlike TPC, DSS existed as the mixed sodium salts. A slurry of 6.25 w/w % of 80% DSS in 93.75 w/w % of the 95/5-water/ethanol mixture iwa prepared. Tocopheryl acetate was obtained from Roche/BASF. 5.0 w/w % of TA was dispersed in 95.0 w/w % of 95/5 water/ethanol mixture. The test formulations were evaluated in in vitro human skin penetration studies. […] The tests were conducted by […] International (San Diego, Calif.). Human cadaver skin was obtained and prepared. […] Receptor solutions were collected over 48 hours at pre-selected time intervals. After 48 hours the skin surface was washed with isopropyl alcohol, and the skin was collected and split into epidermis and dermis. The skin sections were extracted with isopropyl alcohol.

[1] = Vapour pressure osmometry (dissociation in water); type: physicochemical; conditions: arbitrary scale
Excerpt: A vapour pressure osmometer was used to investigate the dissociation of the di-sodium alpha tocopheryl phosphate N-lauryl imino dipropionate complex by comparing the lowering of the equilibrium temperature to give an identical partial pressure of water vapour around a drop of pure water versus various solutions as an indication of the relative moles of solute.
N-lauryl imino dipropionate alone gives three ions and at 0.05M the effect was 38 units. If the complex was readily dissociated, then the additional tocopheryl phosphate would be expected to increase the effect in the ratio 3:5 by the addition of the charged amino group as a cation and tocopheryl hydrogen phosphate anion.

Dermis/Epidermis Ratio, Tocopheryl Acetate (Human cadaver skin; 48 hours): 0.20 | Percent distribution recovered: Tocopheryl Acetate, Dermis (Human cadaver skin; dermis after 48 hours, 5 μL/cm^2 topical dose): 1.39 wt/wt % | Percent distribution recovered: Tocopheryl Acetate, Epidermis (Human cadaver skin; epidermis after 48 hours, 5 μL/cm^2 topical dose): 7.13 wt/wt % | Percent distribution recovered: Tocopheryl Acetate, Surface Wash (Human cadaver skin; surface wash after 48 hours, 5 μL/cm^2 topical dose): 91.48 wt/wt %
Structure (SMILES): CC(=O)Oc1c(C)c(C)c2c(c1C)CCC(C)(CCC[C@H](C)CCC[C@H](C)CCCC(C)C)O2 (stereo partly drawn) [TA, Tocopheryl acetate]

Osmometer effect ([1]; 0.05M in water): 38 units
Structure (SMILES): CCCCCCCCCCCCN(CCC(=O)O)CCC(=O)O [N-lauryl imino dipropionate]

Structure (SMILES): [Cl-].[Na+] [sodium chloride]
Osmometer effect ([1]; 0.1M in water): 29 unit
